# According to US20240409536A1, “COMPOUNDS AND METHODS FOR MODULATING SPLICING” (REMIX THERAPEUTICS INC., priority 2021, published 2024):
# How the values were obtained:
# Target C = test: HiBiT protein abundance assay, Target C (K562 HiBiT knock-in cells); assay type: cell-based, human; conditions: 24 hours
# Summary of the method: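 K562 knock-in cells (10000/well, IMDM+1% FBS) treated 24 h at 37 °C with 10-point 3-fold dilutions, top final 10 μM, DMSO ≤0.25%. HiBiT lytic luminescence read; response normalized to unmodified K562 and DMSO-treated controls. IC50 interpolated at 50% abundance by four-parameter logistic fit.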
# HTT mRNA = test: Gene panel canonical junction qPCR assay, HTT CJ mRNA decrease; assay type: cell-based, human; conditions: Homo sapiens, canonical junction qPCR, read-out: HTT IC50 (decrease in CJ mRNA levels)
# Summary of the method: (§1)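 A673 or K562 cells were treated with compound, and lysates underwent cDNA synthesis and qPCR with a CY5 5′-nuclease probe or primer spanning the canonical exon junction. ΔCt versus GAPDH, GUSB or PPIA was normalized to DMSO (2^(−ΔΔCt)), converted to percentage response and fitted four-parameter logistic for IC50.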
# MYB mRNA = test: Gene panel canonical junction qPCR assay, MYB CJ mRNA decrease; assay type: cell-based, human; conditions: Homo sapiens, canonical junction qPCR, read-out: MYB IC50 (decrease in CJ mRNA levels)
# Summary of the method: as §1
# SMN2 mRNA = test: Gene panel canonical junction qPCR assay, SMN2 CJ mRNA decrease; assay type: cell-based, human; conditions: Homo sapiens, canonical junction qPCR, read-out: SMN2 IC50 (decrease in CJ mRNA levels)
# Summary of the method: as §1
# Target C mRNA = test: Gene panel canonical junction qPCR assay, Target C CJ mRNA decrease; assay type: cell-based; conditions: Homo sapiens, canonical junction qPCR, read-out: Target C IC50 (decrease in CJ mRNA levels)
# Summary of the method: as §1
# K562 cells = test: Cell Titer Glo 2.0 cell viability assay in K562 cells; conditions: 72 hours
Structure (SMILES),IC50 (Target C) [nM],IC50 (HTT mRNA) [nM],IC50 (MYB mRNA) [nM],IC50 (SMN2 mRNA) [nM],IC50 (Target C mRNA) [nM],Viability (K562 cells)
Cc1cn2cc(NC(=O)c3ccc(N4CCN[C@@H](CF)C4)c4nccnc34)cc(F)c2n1 [Compound 367],1000 to 10000,1000 to 10000,1000 to 10000,100 to 1000,1000 to 10000,C (C represents 1000-9999 nM)
Cc1cn2cc(NC(=O)c3ccc(N4CCNC(C)(CO)C4)c4nccnc34)cc(F)c2n1 (stereo not drawn) [Compound 368],1000 to 10000,1000 to 10000,< 100,< 100,1000 to 10000,B (B represents 100-1000 nM)
Cc1cn2cc(NC(=O)c3ccc(N4CCN(CCO)C5(CC5)C4)c4nccnc34)cc(F)c2n1 [Compound 369],1000 to 10000,1000 to 10000,100 to 1000,< 100,1000 to 10000,C (C represents 1000-9999 nM)
